Read-outs that look alike come from different tables or passages of the source.
Tests used:
[1] = tested on: ET-1-induced contraction of endothelium-denuded pulmonary arterial rings; experiment: ET-1-induced contraction of endothelium-denuded pulmonary arterial rings; assay type: cell-based, rat; settings: FIG. 5, 10 nM ambrisentan, 30 nM tadalafil, n=4
Experimental: (§1) Intrapulmonary arteries (200-500 μm) and aortas were isolated from Sprague Dawley rats (300-320 g) and cut into 1-2 mm rings. Rings were mounted in a myograph and constricted with a submaximal concentration (8 nM) of ET-1. Ambrisentan, Bosentan, Macitentan and Tadalafil alone and in combination were evaluated in ET-constricted rings.

[2] = molecular target: T1, ETA receptor (Homo sapiens, UniProt P25101); settings: read-out: affinity for the ETA receptor; cited from earlier work
T1 sequence (P25101 21-427): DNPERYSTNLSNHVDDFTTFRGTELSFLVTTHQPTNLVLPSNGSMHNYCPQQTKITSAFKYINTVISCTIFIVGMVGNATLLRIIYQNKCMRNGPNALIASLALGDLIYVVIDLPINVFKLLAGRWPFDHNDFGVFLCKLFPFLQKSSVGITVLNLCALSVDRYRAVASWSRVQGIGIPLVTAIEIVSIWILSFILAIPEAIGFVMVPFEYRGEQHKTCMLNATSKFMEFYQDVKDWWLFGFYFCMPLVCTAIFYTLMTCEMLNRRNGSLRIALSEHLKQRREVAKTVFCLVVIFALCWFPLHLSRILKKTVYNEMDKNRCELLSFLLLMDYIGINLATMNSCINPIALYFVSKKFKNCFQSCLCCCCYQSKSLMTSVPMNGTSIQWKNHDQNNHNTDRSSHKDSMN

[3] = Free plasma concentration in the rat PAH study; assay type: in vivo; settings: Sprague-Dawley, read-out: free or unbounded plasma concentration
Experimental: (§2) Rats were dosed with vehicle (0.5% hydroxypropyl methylcellulose (HPMC), 0.2% Tween 80, and 0.9% benzyl alcohol in water), AMB or TAD (quaque die) beginning the day they were placed in chambers. Plasma was collected when animals were terminated.
The free or unbounded plasma concentration for 10 mpk AMB dosing was about 104 nM in both cases. The free or unbounded plasma concentrations of TAD was about 24 nM when administered separately, or about 26 nM when administered with AMB, whether 1 mpk or 10 mpk.

[4] = tested on: ET-1-induced contraction of rat intact thoracic aortic rings; experiment: Ex-vivo vascular function assay: relaxation of ET-1-contracted intact rat thoracic aortic rings; assay type: cell-based; settings: for relaxation of intact thoracic aortic rings in the presence of ET-1: Example 1, FIG. 1, 8 nM ET-1, 10 nM ambrisentan, 30 nM tadalafil, alone or in combination, n=3; for IC50: Rattus norvegicus, read-out: IC50 to relax ET-1 constricted aortic rings
Experimental: as §1, with “The combination of both 10 nM ambrisentan and 30 nM tadalafil relaxed the ET-1-induced contraction of the intact thoracic aortic rings by 81±7% (FIG. 1, n=3; P<0.01 vs. mono-administration of ambrisentan or tadalafil). […] Intrapulmonary” for “Intrapulmonary”

[5] = tested on: ET-1-induced contraction of rat intact intrapulmonary arterial rings; experiment: Ex-vivo vascular function assay: relaxation of ET-1-contracted intact rat intrapulmonary arterial rings; assay type: cell-based; settings: 8 nM ET-1, 10 nM ambrisentan, 30 nM tadalafil, alone or in combination, mean±SEM
Experimental: The selective type-A endothelin receptor antagonist, ambrisentan ([…]®), and the phosphodiesterase type 5 inhibitor, tadalafil ([…]®), are currently used to treat pulmonary arterial hypertension. Isolated rat intact intrapulmonary arterial rings contracted with 8 nM endothelin-1 (ET-1) were relaxed by 10 nM ambrisentan (from Gilead Sciences, Inc.) and 30 nM tadalafil (from Sequoia Research Products Ltd. Pangbourne, UK) by 30±13% (mean±SEM, n=3) and 12±5% (n=3), respectively, whereas both drugs in combination relaxed the intact intrapulmonary arterial rings by […] (FIG. 1, n=3, P<0.01 vs. mono-administration of ambrisentan or tadalafil). Intrapulmonary arteries (200-500 μm) and aortas were isolated from Sprague Dawley rats (300-320 g) and cut into 1-2 mm rings. Rings were mounted in a myograph and constricted with a submaximal concentration (8 nM) of ET-1. Ambrisentan, Bosentan, Macitentan and Tadalafil alone and in combination were evaluated in ET-constricted rings. Isolated rat intact intrapulmonary arterial rings contracted with 8 nM endothelin-1 (ET-1) were relaxed by 10 nM ambrisentan and 30 nM tadalafil by 29±1% (mean±SEM, n=4) and 22±2% (n=4), respectively, whereas both drugs in combination relaxed the intact intrapulmonary arterial rings by 85±3% (FIG. 2, n=4, P<0.01 vs. mono-administration of ambrisentan or tadalafil).

[6] = tested on: ET-1-induced contraction of endothelium-denuded aortic rings; experiment: ET-1-induced contraction of endothelium-denuded aortic rings; assay type: cell-based, rat; settings: 10 nM ambrisentan, n=4
Experimental: as §1

[7] = tested on: hypoxia-induced mean pulmonary arterial pressure (mPAP) in male SD rats; experiment: Hypoxia-induced pulmonary arterial hypertension (PAH) animal model; assay type: in vivo; settings: 3 wks hypoxia, rat
Experimental: as §2, with “Male SD Rats (225-250 g) were housed in chambers under normoxic (sea level) or hypoxic (10% oxygen) conditions for 3 weeks. Rats” for “Rats”, “terminated. [table]” for “terminated.”

[8] = Example 2, FIG. 2, 100 nM bosentan, 30 nM macitentan

Structure (SMILES) | reduction of contraction induced by ET-1 [1] | Ki [2] [nM] | concentration at 3 weeks ([3]; 1 mpk, AMB 1 mpk, administered separately) [nM] | concentration at 3 weeks ([3]; AMB 1 mpk, administered along with TAD) [nM] | concentration at 3 weeks ([3]; AMB 10 mpk, separately or with TAD (both cases)) [nM] | relaxation of intact thoracic aortic rings in the presence of ET-1 [4] [%] | relaxation of intact intrapulmonary arterial rings contracted with ET-1 ([5]; Example 1, FIG. 1, n=3) [%] | relaxation of intact intrapulmonary arterial rings contracted with ET-1 [5, 8] [%] | reduction of contraction induced by ET-1 [6] | inhibition of PAP (mPAP±SEM) ([7]; 1 mpk AMB once daily) [%] | inhibition of PAP (mPAP±SEM) ([7]; 10 mpk AMB once daily) [%] | concentration at 3 weeks ([3]; 10 mpk, TAD (10 mpk), administered separately) [nM] | concentration at 3 weeks ([3]; TAD (10 mpk), administered with AMB, 1 mpk or 10 mpk) [nM] | IC50 ([4]; in the presence of 10 nM ambrisentan) [nM] | IC50 ([4]; tadalafil alone) [nM] | inhibition of PAP (mPAP±SEM) ([7]; 10 mpk TAD once daily) [%]
COC(c1ccccc1)(c1ccccc1)[C@H](Oc1nc(C)cc(C)n1)C(=O)O [ambrisentan, (2S)-2-[(4,6-dimethylpyrimidin-2-yl)oxy]-3-methoxy-3,3-diphenylpropanoic acid] | 23±4% | ~0.012 | ~17 | ~13 | ~104 | 32±3 | 30±13 | 29±1 | 26±7% | 28.4±1.1 | 42.1±2.4 |  |  |  |  | 
COc1ccccc1Oc1c(NS(=O)(=O)c2ccc(C(C)(C)C)cc2)nc(-c2ncccn2)nc1OCCO [bosentan] |  |  |  |  |  |  |  | 25±1 |  |  |  |  |  |  |  | 
CCCNS(=O)(=O)Nc1ncnc(OCCOc2ncc(Br)cn2)c1-c1ccc(Br)cc1 [macitentan] |  |  |  |  |  |  |  | 31±2 |  |  |  |  |  |  |  | 
CN1CC(=O)N2[C@H](c3ccc4c(c3)OCO4)c3[nH]c4ccccc4c3C[C@@H]2C1=O [tadalafil, (6R-trans)-6-(1,3-benzodioxol-5-yl)-2,3,6,7,12,12a-hexahydro-2-methyl-pyrazino [1′, 2′:1,6] pyrido[3,4-b]indole-1,4-dione] | failed to inhibit contraction |  |  |  |  | 16±4 | 12±5 | 22±2 | failed to inhibit contraction |  |  | ~24 | ~26 | 16 | 79 | 23.2±1.3

From patent US9549926B2, “Compositions and methods of treating pulmonary hypertension” (Gilead Sciences, Inc., priority 2010, dated 2017)
